How the values were obtained:
[1] = tested on: serotonin contracted rat aortae; assay type: cell-based
From the text: (§1) Under the conditions described above, conversion of non-iodinated ANF peptide fragment to the iodinated peptide was approximately 48%, based on the absorbance of the respective HPLC fractions and by amino acid analysis.

[2] = tested on: serotonin contracted rabbit aortae; assay type: cell-based
From the text: as §1

For `CC[C@H](C)[C@@H]1NC(=O)[C@H](CCCNC(=N)N)NC(=O)[C@H](CC(=O)O)NC(=O)[C@H]([C@@H](C)CC)NC(=O)[C@H](CCCNC(=N)N)NC(=O)CNC(=O)CNC(=O)[C@H](Cc2ccccc2)NC(=O)[C@@H](NC(=O)[C@H](CO)NC(=O)[C@H](CO)NC(=O)[C@H](CCCNC(=N)N)NC(=O)[C@@H](N)CCCNC(=N)N)CSSC[C@@H](C(=O)N[C@@H](CC(N)=O)C(=O)N[C@@H](CO)C(=O)N[C@@H](Cc2ccccc2)C(=O)N[C@@H](CCCNC(=N)N)C(=O)N[C@@H](Cc2ccc(O)c(I)c2)C(=O)O)NC(=O)CNC(=O)[C@H](CC(C)C)NC(=O)CNC(=O)[C@H](CO)NC(=O)[C@H](CCC(N)=O)NC(=O)[C@H](C)NC(=O)CNC1=O` [iodinated ANF peptide fragment], the IC50 [1] was 1.05 nM, the extent of vasorelaxation ([1]; serotonin contracted rat aortae) was “complete vasorelaxation” and the IC50 [2] was 1.65 nM. For the same compound, the extent of vasorelaxation ([2]; serotonin contracted rabbit aortae) was “complete vasorelaxation”.

From patent publication US4609725A, “Cardiac atrial peptides” (Merck & Co., Inc., priority 1984, dated 1986)
